Biological target: human APJ receptor (Homo sapiens (Human), UniProt P35414)
Test: [35S]GTPγS binding assay on membranes from CHO cells stably expressing human APJ receptor
Format: biochemical
Details: read-out: Activity hAPJ SPA EC50 IP
Method in brief: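 Membranes from CHO cells stably expressing human APJ incubated with ligand, 0.2 nM [35S]GTPγS and WGA SPA beads in HEPES pH 7.5 with 5 mM MgCl2, 200 mM NaCl, 3 μM GDP, 90 min at RT. Nonspecific binding defined with 100 μM GTPγS; EC50 by non-linear regression.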

Sequence of human APJ receptor (P35414 whole entry): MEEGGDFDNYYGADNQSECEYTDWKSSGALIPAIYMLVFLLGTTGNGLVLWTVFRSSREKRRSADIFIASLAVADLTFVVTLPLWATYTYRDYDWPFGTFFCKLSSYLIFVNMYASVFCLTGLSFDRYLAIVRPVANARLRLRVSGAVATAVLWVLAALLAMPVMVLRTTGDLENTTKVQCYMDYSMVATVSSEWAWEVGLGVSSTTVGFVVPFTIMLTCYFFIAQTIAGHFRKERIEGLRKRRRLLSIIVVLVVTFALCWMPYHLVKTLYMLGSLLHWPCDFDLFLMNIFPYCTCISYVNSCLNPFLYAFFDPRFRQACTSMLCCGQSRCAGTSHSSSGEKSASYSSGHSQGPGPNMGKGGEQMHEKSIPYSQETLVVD

| Structure (SMILES) | EC50 [nM] |
| --- | --- |
| COc1cccc(OC)c1-n1c(NS(=O)(=O)[C@@H](C)[C@@H](OC(C)C)c2ncc(Cl)cn2)nnc1[C@H]1CCC(=O)N1 (single isomer, unassigned) [Example 399.0, (1S,2S)-1-(5-chloro-2-pyrimidinyl)-N-(4-(2,6-dimethoxyphenyl)-5-((2R)-5-oxo-2-pyrrolidinyl)-4H-1,2,4-triazol-3-yl)-1-(2-propanyloxy)-2-propanesulfonamide or (1S,2S)-1-(5-chloro-2-pyrimidinyl)-N-(4-(2,6-dimethoxyphenyl)-5-((2S)-5-oxo-2-pyrrolidinyl)-4H-1,2,4-triazol-3-yl)-1-(2-propanyloxy)-2-propanesulfonamide] | 470 |
| COc1cccc(OC)c1-n1c(NS(=O)(=O)[C@@H](C)[C@@H](OC(C)C)c2ncc(Cl)cn2)nnc1[C@H]1CCC(=O)N1 (single isomer, unassigned) [Example 400.0, (1S,2S)-1-(5-chloro-2-pyrimidinyl)-N-(4-(2,6-dimethoxyphenyl)-5-((2R)-5-oxo-2-pyrrolidinyl)-4H-1,2,4-triazol-3-yl)-1-(2-propanyloxy)-2-propanesulfonamide or (1S,2S)-1-(5-chloro-2-pyrimidinyl)-N-(4-(2,6-dimethoxyphenyl)-5-((2S)-5-oxo-2-pyrrolidinyl)-4H-1,2,4-triazol-3-yl)-1-(2-propanyloxy)-2-propanesulfonamide] | 330 |
| CO[C@H](c1ncc(Cl)cn1)[C@H](C)S(=O)(=O)Nc1nnc([C@H]2CCOC2)n1Cc1ccon1 (single isomer, unassigned) [Example 401.0, (1R,2S)-1-(5-chloro-2-pyrimidinyl)-1-methoxy-N-(4-(1,2-oxazol-3-ylmethyl)-5-((3R)-tetrahydro-3-furanyl)-4H-1,2,4-triazol-3-yl)-2-propanesulfonamide or (1R,2S)-1-(5-chloro-2-pyrimidinyl)-1-methoxy-N-(4-(1,2-oxazol-3-ylmethyl)-5-((3S)-tetrahydro-3-furanyl)-4H-1,2,4-triazol-3-yl)-2-propanesulfonamide] | 100 |
| CO[C@H](c1ncc(Cl)cn1)[C@H](C)S(=O)(=O)Nc1nnc([C@H]2CCOC2)n1Cc1ccon1 (single isomer, unassigned) [Example 402.0, (1R,2S)-1-(5-chloro-2-pyrimidinyl)-1-methoxy-N-(4-(1,2-oxazol-3-ylmethyl)-5-((3R)-tetrahydro-3-furanyl)-4H-1,2,4-triazol-3-yl)-2-propanesulfonamide or (1R,2S)-1-(5-chloro-2-pyrimidinyl)-1-methoxy-N-(4-(1,2-oxazol-3-ylmethyl)-5-((3S)-tetrahydro-3-furanyl)-4H-1,2,4-triazol-3-yl)-2-propanesulfonamide] | 410 |
| CO[C@H](c1ncc(Cl)cn1)[C@H](C)S(=O)(=O)Nc1nnc([C@@H]2CC[C@H](C)O2)n1Cc1ccon1 (single isomer, unassigned) [Example 403.0, (1R,2S)-1-(5-chloro-2-pyrimidinyl)-1-methoxy-N-(5-((2S,5S)-5-methyltetrahydro-2-furanyl)-4-(1,2-oxazol-3-ylmethyl)-4H-1,2,4-triazol-3-yl)-2-propanesulfonamide or (1R,2S)-1-(5-chloro-2-pyrimidinyl)-1-methoxy-N-(5-((2R,5R)-5-methyltetrahydro-2-furanyl)-4-(1,2-oxazol-3-ylmethyl)-4H-1,2,4-triazol-3-yl)-2-propanesulfonamide] | 280 |
| CO[C@H](c1ncc(Cl)cn1)[C@H](C)S(=O)(=O)Nc1nnc([C@@H]2CC[C@H](C)O2)n1Cc1ccon1 (single isomer, unassigned) [Example 404.0, (1R,2S)-1-(5-chloro-2-pyrimidinyl)-1-methoxy-N-(5-((2S,5S)-5-methyltetrahydro-2-furanyl)-4-(1,2-oxazol-3-ylmethyl)-4H-1,2,4-triazol-3-yl)-2-propanesulfonamide or (1R,2S)-1-(5-chloro-2-pyrimidinyl)-1-methoxy-N-(5-((2R,5R)-5-methyltetrahydro-2-furanyl)-4-(1,2-oxazol-3-ylmethyl)-4H-1,2,4-triazol-3-yl)-2-propanesulfonamide] | 81 |
| COc1cccc(OC)c1-n1c(NS(=O)(=O)[C@@H](C)[C@H](OC)c2ncc(Cl)cn2)nnc1[C@H]1CCC(=O)N1C (single isomer, unassigned) [Example 405.0, (1R,2S)-1-(5-chloropyrimidin-2-yl)-N-(4-(2,6-dimethoxyphenyl)-5-((R)-1-methyl-5-oxopyrrolidin-2-yl)-4H-1,2,4-triazol-3-yl)-1-methoxypropane-2-sulfonamide or (1R,2S)-1-(5-chloropyrimidin-2-yl)-N-(4-(2,6-dimethoxyphenyl)-5-((S)-1-methyl-5-oxopyrrolidin-2-yl)-4H-1,2,4-triazol-3-yl)-1-methoxypropane-2-sulfonamide] | 1720 |
| COc1cccc(OC)c1-n1c(NS(=O)(=O)[C@@H](C)[C@H](OC)c2ncc(Cl)cn2)nnc1[C@H]1CCC(=O)N1C (single isomer, unassigned) [Example 406.0, (1R,2S)-1-(5-chloropyrimidin-2-yl)-N-(4-(2,6-dimethoxyphenyl)-5-((R)-1-methyl-5-oxopyrrolidin-2-yl)-4H-1,2,4-triazol-3-yl)-1-methoxypropane-2-sulfonamide or (1R,2S)-1-(5-chloropyrimidin-2-yl)-N-(4-(2,6-dimethoxyphenyl)-5-((S)-1-methyl-5-oxopyrrolidin-2-yl)-4H-1,2,4-triazol-3-yl)-1-methoxypropane-2-sulfonamide] | 1080 |
| COc1cccc(OC)c1-n1c(NS(=O)(=O)[C@@H](C)[C@@H](OC(C)C)c2ccc(C)cn2)nnc1[C@H]1CCOC1 (single isomer, unassigned) [Example 408.0, (1S,2S)-N-(4-(2,6-dimethoxyphenyl)-5-((3R)-tetrahydro-3-furanyl)-4H-1,2,4-triazol-3-yl)-1-(5-methyl-2-pyridinyl)-1-(2-propanyloxy)-2-propanesulfonamide or (1S,2S)-N-(4-(2,6-dimethoxyphenyl)-5-((3S)-tetrahydro-3-furanyl)-4H-1,2,4-triazol-3-yl)-1-(5-methyl-2-pyridinyl)-1-(2-propanyloxy)-2-propanesulfonamide] | 64 |
| COc1cccc(OC)c1-n1c(NS(=O)(=O)[C@@H](C)[C@H](C)c2ccc(Cl)cn2)nnc1C1CCOC1 (single isomer, unassigned) [Example 409.0] | 11 |
| COc1cccc(OC)c1-n1c(NS(=O)(=O)[C@@H](C)[C@H](C)c2ccc(Cl)cn2)nnc1C1CCOC1 (single isomer, unassigned) [Example 410.0] | 19 |
| COc1cccc(OC)c1-n1c(NS(=O)(=O)[C@@H](C)[C@@H](OC(C)C)c2ncc(C)cn2)nnc1[C@@H]1COC(C)(C)C1 (single isomer, unassigned) [Example 411.0, (1S,2S)-N-(4-(2,6-dimethoxyphenyl)-5-((3R)-5,5-dimethyltetrahydro-3-furanyl)-4H-1,2,4-triazol-3-yl)-1-(5-methyl-2-pyrimidinyl)-1-(2-propanyloxy)-2-propanesulfonamide or (1S,2S)-N-(4-(2,6-dimethoxyphenyl)-5-((3S)-5,5-dimethyltetrahydro-3-furanyl)-4H-1,2,4-triazol-3-yl)-1-(5-methyl-2-pyrimidinyl)-1-(2-propanyloxy)-2-propanesulfonamide] | 86 |
| COc1cccc(OC)c1-n1c(NS(=O)(=O)[C@@H](C)[C@@H](OC(C)C)c2ncc(C)cn2)nnc1[C@@H]1COC(C)(C)C1 (single isomer, unassigned) [Example 412.0, (1S,2S)-N-(4-(2,6-dimethoxyphenyl)-5-((3R)-5,5-dimethyltetrahydro-3-furanyl)-4H-1,2,4-triazol-3-yl)-1-(5-methyl-2-pyrimidinyl)-1-(2-propanyloxy)-2-propanesulfonamide or (1S,2S)-N-(4-(2,6-dimethoxyphenyl)-5-((3S)-5,5-dimethyltetrahydro-3-furanyl)-4H-1,2,4-triazol-3-yl)-1-(5-methyl-2-pyrimidinyl)-1-(2-propanyloxy)-2-propanesulfonamide] | 40 |
| COc1cccc(OC)c1-n1c(NS(=O)(=O)[C@@H](C)[C@@H](OC(C)C)c2ncc(Cl)cn2)nnc1[C@H]1CCC(C)(C)O1 (single isomer, unassigned) [Example 413.0, (1S,2S)-1-(5-chloro-2-pyrimidinyl)-N-(4-(2,6-dimethoxyphenyl)-5-((2R)-5,5-dimethyltetrahydro-2-furanyl)-4H-1,2,4-triazol-3-yl)-1-(2-propanyloxy)-2-propanesulfonamide or (1S,2S)-1-(5-chloro-2-pyrimidinyl)-N-(4-(2,6-dimethoxyphenyl)-5-((2S)-5,5-dimethyltetrahydro-2-furanyl)-4H-1,2,4-triazol-3-yl)-1-(2-propanyloxy)-2-propanesulfonamide] | 7.4 |
| COc1cccc(OC)c1-n1c(NS(=O)(=O)[C@@H](C)[C@@H](OC(C)C)c2ncc(Cl)cn2)nnc1[C@H]1CCC(C)(C)O1 (single isomer, unassigned) [Example 414.0, (1S,2S)-1-(5-chloro-2-pyrimidinyl)-N-(4-(2,6-dimethoxyphenyl)-5-((2R)-5,5-dimethyltetrahydro-2-furanyl)-4H-1,2,4-triazol-3-yl)-1-(2-propanyloxy)-2-propanesulfonamide or (1S,2S)-1-(5-chloro-2-pyrimidinyl)-N-(4-(2,6-dimethoxyphenyl)-5-((2S)-5,5-dimethyltetrahydro-2-furanyl)-4H-1,2,4-triazol-3-yl)-1-(2-propanyloxy)-2-propanesulfonamide] | 1.2 |
| C[C@H](c1ncc(Cl)cn1)[C@H](C)S(=O)(=O)Nc1nnc([C@@H]2CCOC2)n1[C@H](C)c1ccon1 (single isomer, unassigned) [Example 415.0, (2S,3R)-3-(5-chloro-2-pyrimidinyl)-N-(4-((1R)-1-(1,2-oxazol-3-yl)ethyl)-5-((3S)-tetrahydro-3-furanyl)-4H-1,2,4-triazol-3-yl)-2-butanesulfonamide or (2S,3R)-3-(5-chloro-2-pyrimidinyl)-N-(4-((1S)-1-(1,2-oxazol-3-yl)ethyl)-5-((3S)-tetrahydro-3-furanyl)-4H-1,2,4-triazol-3-yl)-2-butanesulfonamide] | 230 |

Reference: patent US10150760B2, “Compounds for use in preparing heterocyclic triazole agonists of the APJ receptor” (AMGEN INC., priority 2016, dated 2018)
